In the supplement of paper PMC10331698:
± gives the standard deviation of the averaged measurements.

Key:
Assay in all cases: LOEC (log10 uM (lowest observed effect concentration))
[1] = compound: C=CC(=O)OCC(F)(F)C(F)(F)C(F)(F)C(F)(F)C(F)(F)C(F)(F)C(F)(F)C(F)F [1H,1H,9H-Perfluorononyl acrylate]
Procedure: (§1)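 BioMAP Diversity Plus panel in human primary cell co-cultures, 4 concentrations in duplicate blinded samples. Responses are log10 fold change versus DMSO control, processed with tcpl v2.1.0. A hit is called when responses at any concentration exceed the cutoff (the larger of 3*bmad or log10(1.2)); the lowest observed effect concentration (modl_ga, log10 uM) is reported for hits.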

[2] = compound: C=CC(=O)OCC(F)(F)C(F)(F)C(F)(F)C(F)(F)COC(=O)C=C [1H,1H,6H,6H-Perfluorohexane-1,6-diol diacrylate]
Procedure: as §1

[3] = compound: FC(F)(I)C(F)(F)C(F)(F)C(F)(F)C(F)(F)C(F)(F)I [1,6-Diiodoperfluorohexane]
Procedure: as §1

[4] = compound: O=C(CC(=O)C(F)(F)C(F)(F)C(F)(F)F)c1cccs1 [(Perfluorobutyryl)-2-thenoylmethane]
Procedure: as §1

Perfluoropinacol = compound: OC(C(F)(F)F)(C(F)(F)F)C(O)(C(F)(F)F)C(F)(F)F [Perfluoropinacol]
Procedure: as §1

[5] = compound: OCC(F)(F)C(F)(F)C(F)(F)C(F)(F)C(F)(F)C(F)(F)C(F)(F)C(F)(F)C(F)(F)C(F)(F)C(F)(F)F [11:1 Fluorotelomer alcohol]
Procedure: as §1

[6] = compound: OCC(F)(F)C(F)(F)C(F)(F)C(F)(F)C(F)(F)C(F)(F)C(F)(F)C(F)(F)CO [1H,1H,10H,10H-Perfluorodecane-1,10-diol]
Procedure: as §1

[7] = compound: OCCC(F)(F)C(F)(F)C(F)(F)C(F)(F)C(F)(F)C(F)(F)C(F)(F)C(F)(F)F [8:2 Fluorotelomer alcohol]
Procedure: as §1

[8] = compound: OCCCC(F)(F)C(F)(F)C(F)(F)C(F)(F)C(F)(F)C(F)(F)C(F)(F)C(F)(F)F [3-(Perfluorooctyl)propanol]
Procedure: as §1

[9] = compound: O=S(=O)(OCC(F)(F)F)C(F)(F)C(F)(F)C(F)(F)C(F)(F)F [2,2,2-Trifluoroethyl perfluorobutanesulfonate]
Procedure: as §1

Methotrexate = compound: CN(Cc1cnc2nc(N)nc(N)c2n1)c1ccc(C(=O)N[C@@H](CCC(=O)O)C(=O)O)cc1 [Methotrexate]
Procedure: as §1

[10] = compound: OCC(F)(F)C(F)(F)C(F)(F)C(F)(F)C(F)(F)C(F)(F)F [6:1 Fluorotelomer alcohol]
Procedure: as §1

Perfluorooctanoic acid = compound: O=C(O)C(F)(F)C(F)(F)C(F)(F)C(F)(F)C(F)(F)C(F)(F)C(F)(F)F [Perfluorooctanoic acid]
Procedure: as §1

[11] = compound: Cc1ccc(S(=O)(=O)OCC(F)(F)C(F)(F)C(F)(F)C(F)(F)C(F)(F)C(F)F)cc1 [1H,1H,7H-Perfluoroheptyl 4-methylbenzenesulfonate]
Procedure: as §1

[12] = compound: FC(F)(F)C(F)(F)C(F)(F)C(F)(F)CCI [1H,1H,2H,2H-Perfluorohexyl iodide]
Procedure: as §1

[13] = compound: O=C(O)C(F)(F)C(F)(F)C(F)(F)C(F)(F)C(F)(F)C(F)(F)C(F)(F)F [Ammonium perfluorooctanoate]
Procedure: as §1

| Test System | LOEC (log10 uM) [1] | LOEC (log10 uM) [2] | LOEC (log10 uM) [3] | LOEC (log10 uM) [4] | LOEC (log10 uM) (Perfluoropinacol) | LOEC (log10 uM) [5] | LOEC (log10 uM) [6] | LOEC (log10 uM) [7] | LOEC (log10 uM) [8] | LOEC (log10 uM) [9] | LOEC (log10 uM) (Methotrexate) | LOEC (log10 uM) [10] | LOEC (log10 uM) (Perfluorooctanoic acid) | LOEC (log10 uM) [11] | LOEC (log10 uM) [12] | LOEC (log10 uM) [13] |
| --- | --- | --- | --- | --- | --- | --- | --- | --- | --- | --- | --- | --- | --- | --- | --- | --- |
| BT PBMCCytotoxicity down | 1.3 | 0.845 | 1.78 | 1.78 | 1.78 | -0.199 ± 0.71 | 1.78 | 1.54 ± 0.34 | 1.54 ± 0.34 |  |  |  |  |  |  |  |
| MyoF MMP1 up | 1.78 |  |  |  | 1.78 |  |  |  |  |  |  |  |  |  |  |  |
| IMphg MIP1a down |  |  | 1.54 ± 0.34 |  |  |  | 1.78 |  | 1.54 ± 0.34 | 1.54 ± 0.34 |  |  |  |  |  |  |
| BT sIgG down |  | 0.845 | 1.78 | 1.3 | 0.845 |  | 1.78 | 1.78 | 1.78 |  | 0 |  |  |  |  |  |
| BE3C MMP9 down |  | 1.54 ± 0.34 | 1.78 | 1.3 | 1.78 | -0.222 | 1.78 | 1.3 | 1.78 |  |  |  |  |  |  |  |
| CASM3C Proliferation down |  | 1.3 | 0.845 | 0.801 ± 0.71 | 1.3 |  | 1.78 | 1.3 | 1.3 |  |  | 1.78 |  |  |  |  |
| CASM3C VCAM1 down | 1.07 ± 0.32 | 0.845 | 1.3 | 1.54 ± 0.34 | 1.78 |  | 1.78 | 1.07 ± 0.32 | 1.07 ± 0.32 |  |  |  |  |  |  |  |
| BT PBMCCytotoxicity up |  |  |  |  |  |  |  |  |  |  |  |  | 1.78 |  |  |  |
| 4H Pselectin up |  |  |  |  |  |  |  |  |  |  |  |  |  | 1.78 |  |  |
| 4H Eotaxin3 down |  | 1.3 | 1.3 | 1.3 | 1.3 |  |  | 1.54 ± 0.34 | 1.3 |  |  |  |  |  | 1.78 |  |
| BE3C IL8 down |  | 1.3 | 1.78 | 1.78 | 1.3 | -0.222 | 1.54 ± 0.34 | 1.3 | 1.3 |  |  |  |  |  |  |  |
| IMphg ESelectin down |  | 1.3 | 1.3 | 1.07 ± 0.32 | 1.3 |  | 1.54 ± 0.34 | 1.78 | 1.07 ± 0.32 |  |  |  |  |  |  |  |
| IMphg ESelectin up |  |  |  |  |  | 0.0396 ± 0.37 |  |  |  |  |  |  |  |  |  |  |
| BT xTNFa down | 1.3 | 0.301 | 1.3 | 1.3 | 1.78 |  | 1.78 | 1.54 ± 0.34 | 1.3 |  |  | 1.78 |  |  |  |  |
| hDFCGF CollagenIII up |  |  |  |  |  | -0.699 |  |  |  |  |  |  |  |  |  |  |
| IMphg CD69 down |  | 1.78 | 1.78 | 0.845 | 1.07 ± 0.32 |  | 1.78 | 1.54 ± 0.34 | 1.78 |  |  |  |  |  |  |  |
| BT xIL6 down | 1.54 ± 0.34 | 0.845 | 1.78 | 1.54 ± 0.34 |  |  | 1.78 | 1.78 | 1.54 ± 0.34 |  |  |  |  |  |  |  |
| BT xIL17F up |  |  |  |  |  | -1.22 |  |  |  |  |  |  |  |  |  |  |

| Test System | LOEC (log10 uM) [1] | LOEC (log10 uM) [2] | LOEC (log10 uM) [3] | LOEC (log10 uM) [4] | LOEC (log10 uM) (Perfluoropinacol) | LOEC (log10 uM) [5] | LOEC (log10 uM) [6] | LOEC (log10 uM) [7] | LOEC (log10 uM) [8] | LOEC (log10 uM) [9] | LOEC (log10 uM) (Methotrexate) | LOEC (log10 uM) [10] | LOEC (log10 uM) (Perfluorooctanoic acid) | LOEC (log10 uM) [11] | LOEC (log10 uM) [12] | LOEC (log10 uM) [13] |
| --- | --- | --- | --- | --- | --- | --- | --- | --- | --- | --- | --- | --- | --- | --- | --- | --- |
| IMphg VCAM1 down |  | 1.3 | 1.3 | 1.54 ± 0.34 | 1.54 ± 0.34 |  | 1.78 | 1.78 | 1.3 |  |  |  |  |  |  |  |
| IMphg IL8 up |  |  |  | 1.78 | 1.07 ± 0.32 |  |  | 1.78 |  |  |  |  | 1.78 |  |  | 1.78 |
| LPS PGE2 up |  |  |  |  | 1.3 | -0.722 ± 0.71 |  |  |  |  |  |  |  |  |  |  |
| BT xIL2 down |  | 0.845 | 1.54 ± 0.34 | 1.78 | 1.78 |  | 1.78 | 1.3 | 1.78 |  |  |  |  |  |  |  |
| hDFCGF MCSF down | 1.54 ± 0.34 | 0.573 ± 0.39 | 0.845 |  | 1.3 |  | 1.78 | 1.3 | 0.845 |  |  | 1.78 |  |  |  |  |
| hDFCGF CollagenI up |  |  |  |  |  | -1.22 |  |  |  |  |  |  |  |  |  |  |
| 3C IL8 up |  |  |  |  |  |  |  |  |  |  |  |  | 1.78 |  |  |  |
| hDFCGF IP10 down | 1.78 | 0.301 | 0.845 | 1.3 | 1.3 |  | 1.78 | 1.3 | 0.845 | 1.78 |  | 1.78 |  |  |  |  |
| 3C SRB down |  | 1.3 | 1.3 | 1.3 | 1.3 | -0.222 |  | 1.3 | 1.3 |  |  |  |  | 1.78 |  |  |
| MyoF CollagenIV up |  |  |  |  | 1.3 |  |  |  |  |  |  |  | 1.78 |  |  | 1.78 |
| BE3C MIG down |  | 1.78 | 1.78 | 1.3 | 1.78 |  | 1.78 | 1.54 ± 0.34 | 1.78 |  |  | 1.78 |  |  |  |  |
| hDFCGF ITAC down | 1.54 ± 0.34 | 0.301 | 0.845 | 1.3 | 0.801 ± 0.71 |  | 1.78 | 1.3 | 0.845 | 1.78 |  |  |  |  | 1.78 |  |
| LPS CD69 down |  | 1.3 | 1.78 |  | 1.07 ± 0.32 |  |  | 1.07 ± 0.32 | 1.54 ± 0.34 |  |  |  |  |  |  | 1.78 |
| IMphg SRB.Mphg down |  |  | 1.3 | 1.78 | 1.78 | -0.222 | 1.54 ± 0.34 | 1.78 | 1.07 ± 0.32 |  |  |  |  |  |  |  |
| BE3C IP10 down |  | 1.78 | 1.54 ± 0.34 | 1.3 | 1.3 |  | 1.3 | 1.07 ± 0.32 | 1.3 |  |  |  | 1.78 |  |  | 1.78 |
| IMphg IL10 down |  | 1.3 | 0.845 | 1.3 | 1.3 |  | 1.54 ± 0.34 | 1.07 ± 0.32 | 1.3 |  |  |  | 1.78 | 1.07 ± 0.32 |  |  |
| BT Bcell Proliferation down | 1.78 | 0.845 | 1.54 ± 0.34 | 1.3 | 1.54 ± 0.34 | -0.96 ± 0.37 | 1.78 | 1.78 | 1.3 |  | 0 |  |  |  |  |  |
